# In patent US12612412B2, “Antiviral heterocyclic compounds” (Enanta Pharmaceuticals, Inc., priority 2021, dated 2026):
# System: genotype A, "Long" strain RSV
# Assay: RSV-A assay (CPE protection in Hep-2 cells, ATPlite readout)
# Assay type: cell-based, Human respiratory syncytial virus (HRSV)
# Conditions: human respiratory syncytial virus, genotype A “Long” strain RSV, MOI 0.1, CPE protection, read-out: Human RSV-A (“Long”)
# Procedure, shortened: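 Hep-2 cells (8,000/well) infected with RSV Long strain at MOI 0.1 in the presence of 2-fold compound dilutions in duplicate. After 5 days, cell viability measured by ATPlite luminescence, normalized between virus-only and uninfected cell controls; EC50 reported.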
row,Compound,EC50 [nM]
1,COc1cc(C(=O)NC[C@](O)(c2cc3c(c(-c4ccc(F)cc4)n2)OC[C@]3(CF)C(N)=O)C(F)(F)F)cc2cc(Cl)c(C)nc12 [Example 285],< 200
2,COc1cc(C(=O)NC[C@](O)(c2cc3c(c(-c4ccc(F)cc4)n2)OC[C@@]3(CF)C(N)=O)C(F)(F)F)cc2cc(C(F)(F)F)cnc12 [Example 286],< 200
3,COc1cc(C(=O)NC[C@](O)(c2cc3c(c(-c4ccc(F)cc4)n2)OC[C@]3(CF)C(N)=O)C(F)(F)F)cc2cc(C(F)(F)F)cnc12 [Example 287],< 200
4,COc1cc(C(=O)NC[C@](O)(c2cc3c(c(-c4ccc(F)cc4)n2)OCC3(CF)C(N)=O)C(F)(F)F)cc2cn(C(F)F)nc12 (stereo partly shown) [Example 288],< 200
5,NC(=O)[C@]1(CF)COc2c1cc([C@@](O)(CNC(=O)c1cc(F)c3nc(N)sc3c1)C(F)(F)F)nc2-c1ccc(F)cc1 [Example 289],> 200
6,NC(=O)[C@@]1(CF)COc2c1cc([C@@](O)(CNC(=O)c1cc(F)c3nc(N)sc3c1)C(F)(F)F)nc2-c1ccc(F)cc1 [Example 290],< 200
7,COc1cc(C(=O)NC[C@](O)(c2cc3c(c(-c4ccc(F)cc4)n2)OC[C@@]3(CF)C(N)=O)C(F)(F)F)cn2cc(C3CC3)nc12 [Example 291],> 200
8,COc1cc(C(=O)NC[C@](O)(c2cc3c(c(-c4ccc(F)cc4)n2)OC[C@]3(CF)C(N)=O)C(F)(F)F)cn2cc(C3CC3)nc12 [Example 292],< 200
9,C[C@@H](O)COc1ccc(C(=O)NC[C@](O)(c2cc3c(c(-c4ccc(F)cc4)n2)OC[C@@]3(CF)C(N)=O)C(F)(F)F)cc1OC1CC1 [Example 293],> 200
10,C[C@@H](O)COc1ccc(C(=O)NC[C@](O)(c2cc3c(c(-c4ccc(F)cc4)n2)OC[C@]3(CF)C(N)=O)C(F)(F)F)cc1OC1CC1 [Example 294],< 200
11,COc1cc(C(=O)NC[C@](O)(c2cc3c(c(-c4ccc(F)cc4)n2)OCC3(CF)C(N)=O)C(F)(F)F)cc2cn(C3CC3)nc12 (stereo partly shown) [Example 295],< 200
12,NC(=O)[C@]1(CF)COc2c1cc([C@@](O)(CNC(=O)c1cc(OC3CC3)c3ncccc3c1)C(F)(F)F)nc2-c1ccc(F)cc1 [Example 296],> 200
13,NC(=O)[C@@]1(CF)COc2c1cc([C@@](O)(CNC(=O)c1cc(OC3CC3)c3ncccc3c1)C(F)(F)F)nc2-c1ccc(F)cc1 [Example 297],< 200
14,COc1cc(C(=O)NC[C@](O)(c2cc3c(c(-c4ccc(F)cc4)n2)OC[C@@]3(CF)C(N)=O)C(F)(F)F)ccc1OC1CC1 [Example 298],> 200
15,COc1cc(C(=O)NC[C@](O)(c2cc3c(c(-c4ccc(F)cc4)n2)OC[C@]3(CF)C(N)=O)C(F)(F)F)ccc1OC1CC1 [Example 299],< 200
16,COc1cc(C(=O)NC[C@](O)(c2cc3c(c(-c4ccc(F)cc4)n2)OC[C@]3(C)C(N)=O)C2CC2)cc2cn(C3CC3)nc12 [Example 302],< 200
17,COc1cc(C(=O)NC[C@](O)(c2cc3c(c(-c4ccc(F)cc4)n2)OC[C@]3(C)C(N)=O)C2CC2)cc2cn(C(F)F)nc12 [Example 303],< 200
18,CCS(=O)(=O)c1ccc(-c2nc([C@@](O)(CNC(=O)c3cc(F)c4nc(N)sc4c3)C(F)(F)F)cc3c2OC[C@]3(C)C(N)=O)cc1 [Example 311],> 200
19,COc1cc(C(=O)NC[C@](O)(c2cc3c(c(-c4ccc(F)cc4)n2)OC[C@]3(C)C(N)=O)C2CC2)ccc1OC1CC1 [Example 316],< 200
20,C[C@@H](O)COc1ccc(C(=O)NC[C@](O)(c2cc3c(c(-c4ccc(F)cc4)n2)OC[C@]3(C)C(N)=O)C2CC2)cc1OC1CC1 [Example 317],< 200

row,Compound,EC50 [nM]
1,C[C@]1(C(N)=O)COc2c1cc([C@@](O)(CNC(=O)c1ccc3[nH]c(=O)oc3c1)C(F)(F)F)nc2-c1ccc(F)cc1 [Example 318],< 200
2,COc1cc(C(=O)NC[C@](O)(c2cc3c(c(-c4ccc(F)cc4)n2)OC[C@]3(C)C(N)=O)C2CC2)cc2cc(Cl)c(C)nc12 [Example 319],< 200
3,COc1cc(C(=O)NC[C@](O)(c2cc3c(c(-c4ccc(F)cc4)n2)OC[C@]3(C)C(N)=O)C2CC2)cn2cc(C3CC3)nc12 [Example 320],< 200
4,COc1cc2cc(C(=O)NC[C@](O)(c3cc4c(c(-c5ccc(F)cc5)n3)OC[C@]4(C)C(N)=O)C(F)(F)F)ccc2nc1Cl [Example 325],< 200
5,COc1cc2cc(C(=O)NC[C@](O)(c3cc4c(c(-c5ccc(F)cc5)n3)OC[C@]4(C)C(N)=O)C(F)(F)F)ccc2nc1C [Example 326],< 200
6,Cc1cnc2c(NC(=O)N(C)C3CC3)cc(C(=O)NC[C@](O)(c3cc4c(c(-c5ccc(F)cc5)n3)OC[C@]4(C)C(N)=O)C(F)(F)F)cc2c1 [Example 328],< 200
7,[2H]C([2H])([2H])NC(=O)Nc1cc(C(=O)NC[C@](O)(c2cc3c(c(-c4ccc(F)cc4)n2)OC[C@]3(C)C(N)=O)C(F)(F)F)cc2ccc(C)nc12 [Example 330],> 200
8,C[C@]1(C(N)=O)COc2c1cc([C@@](O)(CNC(=O)c1cc(OC3CC3)n3nc(C4CC4)cc3c1)C1CC1)nc2-c1ccc(F)cc1 [Example 331],< 200
9,C[C@]1(C(N)=O)COc2c1cc([C@@](O)(CNC(=O)c1ccn3nc(C4CC4)cc3c1)C1CC1)nc2-c1ccc(F)cc1 [Example 332],< 200
10,C[C@]1(C(N)=O)COc2c1cc([C@@](O)(CNC(=O)c1cnc3[nH]ccc3c1Cl)C(F)(F)F)nc2-c1ccc(F)cc1 [Example 333],> 200
11,Cc1ncccc1C(=O)NC[C@](O)(c1cc2c(c(-c3ccc(F)cc3)n1)OC[C@]2(C)C(N)=O)C(F)(F)F [Example 334],> 200
12,C[C@]1(C(N)=O)COc2c1cc([C@@](O)(CNC(=O)c1nc3cccnc3s1)C(F)(F)F)nc2-c1ccc(F)cc1 [Example 335],> 200
13,COc1ccc2cc(C(=O)NC[C@](O)(c3cc4c(c(-c5ccc(F)cc5)n3)OC[C@]4(C)C(N)=O)C(F)(F)F)n(C)c2c1 [Example 336],> 200
14,Cn1cc(C(=O)NC[C@](O)(c2cc3c(c(-c4ccc(F)cc4)n2)OC[C@]3(C)C(N)=O)C(F)(F)F)nn1 [Example 337],> 200
15,C[C@]1(C(N)=O)COc2c1cc([C@@](O)(CNC(=O)c1cc3ccc(C(F)(F)F)cc3[nH]1)C(F)(F)F)nc2-c1ccc(F)cc1 [Example 338],> 200
16,CC(C)Oc1ccc2cc(C(=O)NC[C@](O)(c3cc4c(c(-c5ccc(F)cc5)n3)OC[C@]4(C)C(N)=O)C(F)(F)F)[nH]c2c1 [Example 339],> 200
17,COC(=O)Nc1cc(C(=O)NC[C@](O)(c2cc3c(c(-c4ccc(F)cc4)n2)OC[C@]3(C)C(N)=O)C(F)(F)F)ccc1F [Example 340],< 200
18,C[C@]1(C(N)=O)COc2c1cc([C@@](O)(CNC(=O)c1cc3c(cc1Cl)NC(=O)C3)C(F)(F)F)nc2-c1ccc(F)cc1 [Example 341],> 200
19,C[C@]1(C(N)=O)COc2c1cc([C@@](O)(CNC(=O)c1cnoc1C1CC1)C(F)(F)F)nc2-c1ccc(F)cc1 [Example 342],> 200
20,C[C@]1(C(N)=O)COc2c1cc([C@@](O)(CNC(=O)c1cnc3cc[nH]c3c1)C(F)(F)F)nc2-c1ccc(F)cc1 [Example 343],> 200

row,Compound,EC50 [nM]
1,Cc1cc(C(=O)NC[C@](O)(c2cc3c(c(-c4ccc(F)cc4)n2)OC[C@]3(C)C(N)=O)C(F)(F)F)ccn1 [Example 344],< 200
2,C[C@]1(C(N)=O)COc2c1cc([C@@](O)(CNC(=O)c1c[nH]c3cc(Cl)ccc13)C(F)(F)F)nc2-c1ccc(F)cc1 [Example 345],> 200
3,C[C@]1(C(N)=O)COc2c1cc([C@@](O)(CNC(=O)c1ccc3ccsc3c1)C(F)(F)F)nc2-c1ccc(F)cc1 [Example 346],> 200
4,C[C@]1(C(N)=O)COc2c1cc([C@@](O)(CNC(=O)c1c[nH]c3ncc(C(F)(F)F)cc13)C(F)(F)F)nc2-c1ccc(F)cc1 [Example 347],> 200
5,C[C@]1(C(N)=O)COc2c1cc([C@@](O)(CNC(=O)c1ccc(F)c3cc[nH]c13)C(F)(F)F)nc2-c1ccc(F)cc1 [Example 348],< 200
6,C[C@]1(C(N)=O)COc2c1cc([C@@](O)(CNC(=O)c1cc[nH]c1)C(F)(F)F)nc2-c1ccc(F)cc1 [Example 349],> 200
7,C[C@]1(C(N)=O)COc2c1cc([C@@](O)(CNC(=O)c1c[nH]c3c(Cl)cccc13)C(F)(F)F)nc2-c1ccc(F)cc1 [Example 350],> 200
8,C[C@]1(C(N)=O)COc2c1cc([C@@](O)(CNC(=O)c1c[nH]c3nccnc13)C(F)(F)F)nc2-c1ccc(F)cc1 [Example 351],> 200
9,C[C@]1(C(N)=O)COc2c1cc([C@@](O)(CNC(=O)c1c[nH]c3ccccc13)C(F)(F)F)nc2-c1ccc(F)cc1 [Example 352],> 200
10,C[C@]1(C(N)=O)COc2c1cc([C@@](O)(CNC(=O)c1c[nH]c3ncc(F)cc13)C(F)(F)F)nc2-c1ccc(F)cc1 [Example 353],> 200
11,Cc1cc(C(=O)NC[C@](O)(c2cc3c(c(-c4ccc(F)cc4)n2)OC[C@]3(C)C(N)=O)C(F)(F)F)n[nH]1 [Example 355],> 200
12,Cc1oncc1C(=O)NC[C@](O)(c1cc2c(c(-c3ccc(F)cc3)n1)OC[C@]2(C)C(N)=O)C(F)(F)F [Example 356],> 200
13,C[C@]1(C(N)=O)COc2c1cc([C@@](O)(CNC(=O)c1ccc3sccc3c1)C(F)(F)F)nc2-c1ccc(F)cc1 [Example 357],> 200
14,Cc1ccn2ncc(C(=O)NC[C@](O)(c3cc4c(c(-c5ccc(F)cc5)n3)OC[C@]4(C)C(N)=O)C(F)(F)F)c2n1 [Example 358],> 200
15,C[C@]1(C(N)=O)COc2c1cc([C@@](O)(CNC(=O)c1ccc3cc[nH]c3c1F)C(F)(F)F)nc2-c1ccc(F)cc1 [Example 359],> 200
16,C[C@]1(C(N)=O)COc2c1cc([C@@](O)(CNC(=O)c1cccc3nccn13)C(F)(F)F)nc2-c1ccc(F)cc1 [Example 360],> 200
17,Cc1ccn2c(C(=O)NC[C@](O)(c3cc4c(c(-c5ccc(F)cc5)n3)OC[C@]4(C)C(N)=O)C(F)(F)F)c(C)nc2c1 [Example 361],> 200
18,Cc1cc[nH]c1C(=O)NC[C@](O)(c1cc2c(c(-c3ccc(F)cc3)n1)OC[C@]2(C)C(N)=O)C(F)(F)F [Example 362],> 200
